Values of other authors in publication PMC3616063, “Genomic and Structural Characterization of Kunitz-Type Peptide LmKTT-1a Highlights Diversity and Evolution of Scorpion Potassium Channel Toxins” (PLoS ONE, 2013).

Experiments:
[1] = tested on: IKCa channels; conditions: ref [10]
Text: (§1) Over the last 400 million years, scorpions have evolved many peptide toxins that target different potassium channels. Numerous potassium channel toxins have been isolated from scorpions including those identified by proteomic and transcriptome analysis of scorpion venom glands [2]–[4]. These toxins are divided into α-KTx, β-KTx, γ-KTx, and κ-KTx subfamilies based on their similarity, [6]. Some of the toxins are specific inhibitors that serve as useful pharmacological tools and candidate drugs that target various potassium channels. Examples include charybdotoxin (ChTX), ...

[2] = tested on: Herg channels; conditions: ref [11]
Text: as §1

[3] = tested on: SKCa channels; conditions: ref [9]
Text: as §1

[4] = tested on: BKCa channels; conditions: ref [8]
Text: as §1

[5] = tested on: Kv1.3; conditions: ref [8]
Text: as §1

For “maurotoxin (VSCTGSKDCYAPCRKQTGCPNAKCINKSCKCYGC; UniProt P80719 1-34, looked up) [maurotoxin (MTX)]”, the IKCa channel targeting [1] is given as “targeted toward IKCa channels”.

For “BeKm-1: scorpion toxin which inhibits Herg channels (RPTDIKCSESYQCFPVCKSRFGKTNGRCVNGFCDCF; UniProt Q9BKB7 22-57, looked up)”, the Herg channel inhibition [2] is listed as “inhibits Herg channels”.

In the case of “scyllatoxin (AFCNLRMCQLSCRSLGLLGKCIGDKCECVKH; UniProt P16341 1-31, looked up) [scyllatoxin (ScyTx)]”, the SKCa channel inhibition [3] is listed as “inhibits SKCa channels”.

For charybdotoxin [charybdotoxin (ChTX)], the BKCa channel targeting [4] is given as “targeted toward Kv1.3 and BKCa channels” and the Kv1.3 channel targeting [5] is given as “targeted toward Kv1.3”.
